Assays:
[1] = system: CAPAN-1 human pancreatic cancer cells; test: Ihh and Shh mRNA expression in CAPAN-1 cells; type: cell-based; conditions: cyclopamine 4 μM, TO 2-5 μM, data not shown
Protocol: Expression of Shh and Ihh mRNA in human cultures of pancreatic cancer cells, CAPAN-1, L3.6p1, and E3LZ10.7 were analyzed by Q-RT-PCR and normalized to GAPDH expression. Cells were cultured in DMEM containing 10% FBS and RNA was extracted 3 days after seeding. Data from a representative experiment are reported as the mean of triplicate determinations±SD (p<0.001 for CAPAN-1 vs. other two cell types for Shh and 11 h mRNA expression).
Culturing CAPAN-1 cells in 1% vs. 10% FBS had no effects on their level of mRNA expression for 11th and Shh (data not shown), and treatment of CAPAN-1 cells with the Hh pathway inhibitor cyclopamine (4 μM) or the LXR agonist TO (2-5 μM) had no effect on the expression of Ihh or Shh mRNA in these cells (data not shown).

[2] = system: C3H10T1/2 embryonic fibroblasts; test: CAPAN-1 conditioned-medium-induced alkaline phosphatase activity in C3H10T1/2 cells; type: cell-based; conditions: C3H10T1/2, 3 days; TO 2 μM, Oxy16 5 μM, Cyc 4 μM (FIG. 11)
Protocol: Next, cells were treated with DMEM containing 5% FBS or CAPAN-1 CM in the presence or absence of TO, Oxy16, or Cyc. After 3 days, alkaline phosphatase activity assay using whole cell lysates was performed.
(§1) In order to assess the functional activity of Hh proteins produced by CAPAN-1 cells, we examined the ability of CM to induce Hh target gene expression in C3H10T1/2 embryonic fibroblasts.

[3] = system: Saos-2 human osteosarcoma cells; test: Anchorage-independent clonogenic growth of Saos-2 cells; type: cell-based; conditions: for clonogenic growth: Saos-2, 1 μM, 72 hours, colonies after 10 days (FIG. 4)
Protocol: (§2) Next, cells were harvested and examined for clonogenic growth in non-adherent plates after 10 days of culturing. Data from a representative of two separate experiments are reported as the relative number of colonies formed by cells treated with LXR ligands relative to cells treated with control vehicle (% of control).
(§3) We examined whether LXR activation inhibits the clonogenic growth of human osteosarcoma cells using an anchorage-independent cell growth assay. Saos-2 and U2OS cells were seeded in standard tissue culture plates and treated for 72 hours with control vehicle or 1 μM of TO, 22R, or Oxy16. Following treatments with LXR ligands, the drugs were removed and the cells harvested and plated in methylcellulose media in non-adherent plates (Costar) and the cell colonies formed after 10 days were counted.

[4] = system: human primary multiple myeloma cells derived from patients; test: Clonogenic growth of primary multiple myeloma cells from patients in methylcellulose; type: cell-based; conditions: 1 μM, 96 hours, CD34+ and CD138+ depleted bone marrow mononuclear cells
LXR [5] = test: LXR target gene expression by Q-RT-PCR in Saos-2 osteosarcoma cells; type: cell-based, human; conditions: for expression of LXR target genes ABCA1 and SREBP1c: Saos-2 cells (FIG. 2, 72 hours for TO)
Text: Data from a representative experiment are reported as the Data from a representative experiment are reported as the mean of triplicate determinations±SD relative to the expression level of LXRα (p<0.001 for control vs. both concentrations of TO for ABCA1 and SREBP1c mRNA).
Culturing the cells in varying serum (FBS) concentrations from 1% to 10% had no effect on LXRs or LXR target gene expression levels at baseline.

Hedgehog signaling = test: CAPAN-1 conditioned-medium-induced Hh target gene expression (Ptch1, HHIP, Gli1) in C3H10T1/2 cells; type: cell-based; conditions: C3H10T1/2, 48 hours; TO 2 μM, Oxy16 5 μM, Cyc 4 μM (FIG. 10)
Protocol: Next, cells were treated with DMEM containing 5% […] or CAPAN-1 CM in the presence or absence of TO, Oxy16, or Cyc. After 48 hours, RNA was extracted and analyzed by Q-RT-PCR for the expression of Hh target genes Ptch1, HHIP, and Gli1 and normalized to GAPDH expression.
As noted above, Hh signaling appears to play an important role in the initiation and progression of pancreatic cancer (26), and the inhibition of HE signaling using small molecule antagonists inhibits pancreatic cancer cells from growing in vitro and in vivo (50). […] Subsequently, Hh signaling in stromal cells provides a permissive milieu for tumor cells to grow. […] In this Example, we examine this possibility using an in vitro model system in which Hh signaling is induced in C3H10T1/2 embryonic fibroblasts by conditioned-medium (CM) from CAPAN-1 human pancreatic cancer cells.
as §1

[6] = system: NCI-H929 multiple myeloma cancer stem cells; test: Percentage of cancer stem cells (CD138 negative, ALDH positive) in NCI-H929 cultures by flow cytometry; type: cell-based, human; conditions: 1 μM, 96 hours (FIGS. 7, 8)
Protocol: NCI-H929 multiple myeloma cells were treated for 96 hours with control vehicle or 1 μM of each compound as shown. Next, percentage of CD138negative cells in the same number of starting cells from each group was determined by flow cytometry.
NCI-H929 multiple myeloma cells were treated for 96 hours with control vehicle or 1 μM of each compound as shown. Next, percentage of ALDH+ cells in the same number of starting cells from each group was determined by flow cytometry.

LXR [7] = test: LXR target gene expression in human pancreatic cancer cells
[8] = system: L3.6p1 human pancreatic cancer cells; test: Clonogenic growth of L3.6p1 pancreatic cancer cells in methylcellulose; type: cell-based; conditions: 72 hours treatment, colonies counted after 10 days
Protocol: (§4) Following treatment cells were harvested by washing cells twice with phosphate buffered saline (PBS) followed by enzymatically detaching with trypsin/EDTA. Cells were collected then washed twice with PBS. Cells were counted then resuspended in 500 uL of media. The volume of cells required for 2,000 cells from the control group was removed from each group then mixed with methylcellulose (1.2%) containing 30% fetal bovine serum, 1% bovine serum albumin, 10^-4 M 2-mercaptoethanol, and 2 mM L-glutamine. Cells were plated in low-attachment 6 well plates (1 ml/well), each group being plated in triplicate. Following 10 days of incubation, tumor cell colonies consisting of >40 cells were counted using an inverted microscope. Results are presented as the percentage of colonies from each treatment group compared to the control group (Table 2).

[9] = system: human NCI-H929 multiple myeloma cell line; test: Clonogenic growth of NCI-H929 multiple myeloma cells; type: cell-based; conditions: 1 μM, 96 hours, colonies after 10 days (FIG. 6)
Protocol: NCI-11929 multiple myeloma cells were treated for 96 hours with control vehicle or 1 μM of each compound as shown. Next, drugs were removed and cells were plated in methylcellulose. Clonogenic growth of colonies determined after 10 days. Data are reported as percentage of colony number normalized to control group.
In order to examine the effect of LXR activation on the clonogenic growth of multiple myeloma cells, the human NCI-H929 multiple myeloma cell line was used.

[10] = system: Hedgehog signaling pathway; test: Ptch1 mRNA expression (Hh target gene) by Q-RT-PCR in Saos-2 cells; type: cell-based, human; conditions: Saos-2, 2% FBS, 72 hours; 2 or 4 τM TO, 4 μM cyclopamine (FIG. 5)
Protocol: Saos-2 cells were cultured in medium containing 2% FBS and were treated at confluence with 4 μM Cyc, 2 or 4 τM TO, alone or in combination for 72 hours. Expression of Ptch1 and Gli1 (data not shown) mRNA was measured by Q-RT-PCR and normalized to GAPDH.

REH human ALL cells = test: Clonogenic growth of REH ALL cells; type: cell-based
Protocol: as §4
A similar experiment to that shown above for pancreatic cancer cells was performed using the human ALL cells, REH (Table 3).

[11] = system: human pancreatic cancer cells; test: Clonogenic growth of human pancreatic cancer cells in vitro; type: cell-based
[12] = system: U2OS human osteosarcoma cells; test: Anchorage-independent clonogenic growth of U2OS cells; type: cell-based; conditions: 1 μM, 72 hours, colonies after 10 days (FIG. 4)
Protocol: as §2, §3

Hedgehog pathway = conditions: cited from earlier work
LXR [13] = test: LXR target gene expression in C3H10T1/2 cells; conditions: C3H10T1/2, 48 hours
Text: Next we examined whether LXR activation by LXR agonists inhibits CAPAN-1 CM-induced Hh target gene expression in fibroblastic cells.
As noted above, specific oxysterols are thought to be physiological ligands of LXRs that are classified as partial agonists based on their differential effects on the interaction of LXRs with co-activators and co-repressors compared to those induced by the full LXR agonist TO.

LXR [14] = test: ABCA1 (LXR target gene) expression by Q-RT-PCR in M2-10B4 bone marrow stromal cells
Protocol: This was measured by the ability of these molecules to induce the expression of LXR-target genes, including ABCA1, in M2-10B4 bone marrow stromal cells (MSC) after 48 hours of treatment (Table 1).

Row | SMILES | CAPAN-1 CM-induced ALP activity [2] | clonogenic growth [3] | colony formation (% of control) ([4]; Specimen # 1) | colony formation (% of control) ([4]; Specimen # 2) | expression of LXR target genes ABCA1 and SREBP1c (LXR [5]) | CAPAN-1 CM-induced expression of Hh target genes Ptch1, Gli1, HHIP (Hedgehog signaling) | percentage of cancer stem cells (CD138 negative and ALDH positive cells) [6] | Normalized Colony # (% of control) ([8]; 5 μM) | Raw Colony # ([8]; 5 μM) | Normalized Colony # (% of control) ([8]; 10 μM) | Raw Colony # ([8]; 10 μM) | clonogenic growth [9] | Normalized Colony # (% of control) (REH human ALL cells; 0.1 μM) | Raw Colony # (REH human ALL cells; 0.1 μM) | Normalized Colony # (% of control) (REH human ALL cells; 0.5 μM) | Raw Colony # (REH human ALL cells; 0.5 μM) | clonogenic growth [12] | net effect of the LXR agonist on the Hedgehog pathway (Hedgehog pathway) | also measured
1 | O=S(=O)(c1ccccc1)N(CC(F)(F)F)c1ccc(C(O)(C(F)(F)F)C(F)(F)F)cc1 [TO, TO901317, reference compound] | significantly inhibited | significant inhibition | 27 % of control | 18 % of control | robust expression | significantly inhibited | significantly reduced | 41 % of control | 100 | 15 % of control | 37 | inhibited clonogenic growth | 48 % of control | 44 | 37 % of control | 34 | significant inhibition |  | expression of Ihh or Shh mRNA [1]: no effect; expression of LXR target genes (LXR [7]): induce the expression of LXR target genes; Ptch1 mRNA expression [10]: significant inhibition; clonogenic growth [11]: significantly inhibit
2 | C[C@H](CCCC(C)(C)O)[C@H]1CC[C@H]2[C@@H]3CC=C4C[C@@H](O)CC[C@]4(C)[C@H]3CC[C@]12C [25-hydroxycholesterol] |  |  |  |  |  |  |  |  |  |  |  |  |  |  |  |  |  | leave the Hedgehog pathway active | 
3 | C=C(C)CCC[C@](C)(O)C1CCC2C3CC=C4C[C@@H](O)CC[C@]4(C)C3CC[C@@]21C (stereo partly drawn) [Oxy 13] |  |  |  |  |  |  |  |  |  |  |  |  |  |  |  |  |  | leave the Hedgehog pathway active | 
4 | CC(C)CC[C@@H](O)[C@](C)(O)[C@H]1CC[C@H]2[C@@H]3CC=C4C[C@@H](O)CC[C@]4(C)[C@H]3CC[C@]12C [Oxy16, (2R,3R)-2-((3S,8S,9S,10R,13S,14S,17S)-3-Hydroxy-10,13-dimethyl-2,3,4,7,8,9,10,11, 12,13,14,15,16,17-tetradecahydro-1H-cyclopenta[a]phenanthren-17-yl)-6-methyl-heptane-2,3-diol] | inhibited | significant inhibition | 13 % of control | 20 % of control | significant expression | inhibited | significantly reduced | 22 % of control | 53 | 10 % of control | 24 | inhibited clonogenic growth | 71 % of control | 65 | 15 % of control | 14 | significant inhibition |  | potency in blocking clonogenic growth of osteosarcoma cells versus naturally occurring counterparts ([3]; osteosarcoma cells, compared with 22R and 20S): more potent than its naturally occurring counterparts; induction of LXR target genes ABCA1 and ABCG1 (LXR [5]; osteosarcoma cells, preliminary studies (FIG. 3)): strong induction; induction of ABCA1 and ABCG1 (LXR [13]): induction; fold induction at 2 µM (LXR [14]; M210B4, 48 h, read-out: ABCA1 gene expression, Fold Induction ± SD): 2.1 ± 0.5; LXR signaling activation (LXR [14]; bone marrow stromal cells): Activate LXR Signaling

— US20160206631A1, “OXYSTEROLS THAT ACTIVATE LIVER X RECEPTOR SIGNALING AND INHIBIT HEDGEHOG SIGNALING” (THE REGENTS OF THE UNIVERSITY OF CALIFORNIA, priority 2010, published 2016)
